Measured values as given in US7968577B2 (Bristol-Myers Squibb Company, priority 2006, dated 2011).

Biological target: T1, human glucocorticoid receptor (Homo sapiens, UniProt P04150)
T1 construct: purified human recombinant full-length glucocorticoid receptor; purchased Invitrogen Part #2893
T1 sequence (P04150 1-777): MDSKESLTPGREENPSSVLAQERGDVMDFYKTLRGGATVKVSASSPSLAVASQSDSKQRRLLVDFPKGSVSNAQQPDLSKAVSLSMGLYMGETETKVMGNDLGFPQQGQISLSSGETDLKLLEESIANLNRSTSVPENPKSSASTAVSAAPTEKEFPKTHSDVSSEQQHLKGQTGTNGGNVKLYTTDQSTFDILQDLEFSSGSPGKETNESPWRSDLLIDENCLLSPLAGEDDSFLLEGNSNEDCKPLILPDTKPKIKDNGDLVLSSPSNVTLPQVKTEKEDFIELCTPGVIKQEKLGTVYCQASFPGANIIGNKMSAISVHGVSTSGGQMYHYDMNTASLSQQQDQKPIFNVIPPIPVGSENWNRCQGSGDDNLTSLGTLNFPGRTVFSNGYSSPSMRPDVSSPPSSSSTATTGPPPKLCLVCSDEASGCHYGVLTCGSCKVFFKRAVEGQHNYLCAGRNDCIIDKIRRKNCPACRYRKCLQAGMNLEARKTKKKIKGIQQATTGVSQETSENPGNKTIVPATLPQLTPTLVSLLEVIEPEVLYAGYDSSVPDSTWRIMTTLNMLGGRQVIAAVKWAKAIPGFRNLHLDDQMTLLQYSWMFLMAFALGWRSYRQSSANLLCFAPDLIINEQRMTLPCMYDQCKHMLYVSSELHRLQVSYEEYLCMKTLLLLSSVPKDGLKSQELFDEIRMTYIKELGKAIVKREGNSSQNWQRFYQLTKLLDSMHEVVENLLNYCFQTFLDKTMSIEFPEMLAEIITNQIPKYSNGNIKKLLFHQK
Experiment: Glucocorticoid Receptor Binding Assay (I), fluorescence polarization competitor kit (Fluormone GS Red)
Conditions: GR Binding Assay (I)
Method: Glucocorticoid Receptor Binding Assay (I)^a
In order to assess the affinity of test compounds for the human glucocorticoid receptor, a commercially available kit was used (Glucocorticoid Receptor Competitor Assay Kit, Invitrogen Part #2893). Briefly, purified human recombinant full-length glucocorticoid receptor (2 nM) was mixed with fluorescently labeled glucocorticoid (1 nM Fluormone GS Red) in the presence or absence of test compound. After two hour incubation at room temperature in the dark, the fluorescence polarization (FP) of the samples was measured. […] Test compounds were analyzed in the concentration range from 8.5 E-05 μM to 5 μM.

SMILES | Ki [nM]
CC(C)CC(c1ccc(-c2ccccc2)cc1)C(C)(C)C(=O)Nc1nncs1 (stereo not shown) [Example 431, 3-(4-biphenylyl)-2,2,5-trimethyl-N-1,3,4-thiadiazol-2-ylhexanamide] | 52.8
CN(C)C(=O)c1ccc(-c2ccc(C(c3ccccc3)C(C)(C)C(=O)Nc3nncs3)cc2)cc1 (stereo not shown) [Example 379, 4′-(2,2-dimethyl-3-oxo-1-phenyl-3-(1,3,4-thiadiazol-2-ylamino)propyl)-N,N-dimethyl-4-biphenylcarboxamide] | 1.24
CC(C)CC(c1ccc(-c2ccc(C(=O)N3CCOCC3)cc2)cc1)C(C)(C)C(=O)Nc1nncs1 (stereo not shown) [Example 427, 2,2,5-trimethyl-3-(4′-(4-morpholinylcarbonyl)-4-biphenylyl)-N-1,3,4-thiadiazol-2-ylhexanamide] | 9.28
CC(C)CC(c1ccc(-c2ccc3c(c2)CCO3)cc1)C(C)(C)C(=O)Nc1nncs1 (stereo not shown) [Example 441, 3-(4-(2,3-dihydro-1-benzofuran-5-yl)phenyl)-2,2,5-trimethyl-N-1,3,4-thiadiazol-2-ylhexanamide] | 104
CC(C)(C)c1ccc(-c2ccc(C(c3ccccc3)C(C)(C)C(=O)Nc3nncs3)cc2)cc1 (stereo not shown) [Example 417, 3-(4′-tert-butyl-4-biphenylyl)-2,2-dimethyl-3-phenyl-N-1,3,4-thiadiazol-2-ylpropanamide] | 52.9
CC(C)(C(=O)Nc1nccs1)C(c1ccccc1)c1ccc(Oc2ccccc2)cc1 (stereo not shown) [Example 321, 2,2-dimethyl-3-phenyl-3-(4-(phenyloxy)phenyl)-N-1,3-thiazol-2-ylpropanamide] | 5.68
CC(C)(C(=O)Nc1nncs1)C(c1ccccc1)c1ccc(-c2ccc3c(c2)CCO3)cc1 (stereo not shown) [Example 415, 3-(4-(2,3-dihydro-1-benzofuran-5-yl)phenyl)-2,2-dimethyl-3-phenyl-N-1,3,4-thiadiazol-2-ylpropanamide] | 6.08
CN1CCN(C(=O)c2ccc(-c3ccc(C(c4ccccc4)C(C)(C)C(=O)Nc4nncs4)cc3)cc2)CC1 (stereo not shown) [Example 426, 2,2-dimethyl-3-(4′-((4-methyl-1-piperazinyl)carbonyl)-4-biphenylyl)-3-phenyl-N-1,3,4-thiadiazol-2-ylpropanamide] | 3.68
CC(C)Cc1ccc(-c2ccc(C(c3ccccc3)C(C)(C)C(=O)Nc3nncs3)cc2)cc1 (stereo not shown) [Example 383, 2,2-dimethyl-3-(4′-(2-methylpropyl)-4-biphenylyl)-3-phenyl-N-1,3,4-thiadiazol-2-ylpropanamide] | 9.18
COc1ccccc1-c1ccc(C(CC(C)C)C(C)(C)C(=O)Nc2nncs2)cc1 (stereo not shown) [Example 435, 3-(2′-methoxy-4-biphenylyl)-2,2,5-trimethyl-N-1,3,4-thiadiazol-2-ylhexanamide] | 10.7
COCc1ccc(-c2ccc(C(CC(C)C)C(C)(C)C(=O)Nc3nncs3)cc2)cc1 (stereo not shown) [Example 428, 3-(4′-(methoxymethyl)-4-biphenylyl)-2,2,5-trimethyl-N-1,3,4-thiadiazol-2-ylhexanamide] | 17.9
CC(C)CC(c1ccc(-c2ccc(Cl)cc2)cc1)C(C)(C)C(=O)Nc1nncs1 (stereo not shown) [Example 432, 3-(4′-chloro-4-biphenylyl)-2,2,5-trimethyl-N-1,3,4-thiadiazol-2-ylhexanamide] | 184
CCCc1ccc(-c2ccc(C(c3ccccc3)C(C)(C)C(=O)Nc3nncs3)cc2)cc1 (stereo not shown) [Example 384, 2,2-dimethyl-3-phenyl-3-(4′-propyl-4-biphenylyl)-N-1,3,4-thiadiazol-2-ylpropanamide] | 6.43
CC(C)CC(c1ccc(-c2ccc(C(=O)N(C)C)cc2)cc1)C(C)(C)C(=O)Nc1nccs1 (stereo not shown) [Example 392, 4′-(1-(1,1-dimethyl-2-oxo-2-(1,3-thiazol-2-ylamino)ethyl)-3-methylbutyl)-N,N-dimethyl-4-biphenylcarboxamide] | 6.83
CC(C)CC(c1ccc(-c2ccc(C(=O)N(C)C)cc2)cc1)C(C)(C)C(=O)Nc1nncs1 (stereo not shown) [Example 393, 4′-(1-(1,1-dimethyl-2-oxo-2-(1,3,4-thiadiazol-2-ylamino)ethyl)-3-methylbutyl)-N,N-dimethyl-4-biphenylcarboxamide] | 3.68
COc1ccc([C@@H](c2ccccc2)C(C)(C)C(=O)Nc2nncs2)cc1Br [Example 292, (3R)-3-(3-bromo-4-(methyloxy)phenyl)-2,2-dimethyl-3-phenyl-N-1,3,4-thiadiazol-2-ylpropanamide] | 24.5
CN(C)C(=O)c1ccc(-c2ccc(C(c3ccccc3)C(C)(C)C(=O)Nc3nncs3)cc2)cc1 (stereo not shown) [Example 380, 4′-(2,2-dimethyl-3-oxo-1-phenyl-3-(1,3,4-thiadiazol-2-ylamino)propyl)-N,N-dimethyl-4-biphenylcarboxamide] | 24.2
CC(C)(C(=O)Nc1nncs1)C(c1ccccc1)c1ccc(Br)cc1 (stereo not shown) [Example 324, 3-(4-bromophenyl)-2,2-dimethyl-3-phenyl-N-1,3,4-thiadiazol-2-ylpropanamide] | 9.36
CC(C)(C(=O)Nc1nccs1)C(c1ccccc1)c1ccc(Cc2ccccc2)cc1 (stereo not shown) [Example 319, 2,2-dimethyl-3-phenyl-3-(4-(phenylmethyl)phenyl)-N-1,3-thiazol-2-ylpropanamide] | 386
CC(C)CC(c1ccc(-c2ccc(C(=O)NC3CC3)cc2)cc1)C(C)(C)C(=O)Nc1nncs1 (stereo not shown) [Example 429, N-cyclopropyl-4′-(1-(1,1-dimethyl-2-oxo-2-(1,3,4-thiadiazol-2-ylamino)ethyl)-3-methylbutyl)-4-biphenylcarboxamide] | 31
CC(C)(C(=O)Nc1nncs1)C(c1ccccc1)c1ccc(-c2ccc(CO)cc2)cc1 (stereo not shown) [Example 421, 3-(4′-(hydroxymethyl)-4-biphenylyl)-2,2-dimethyl-3-phenyl-N-1,3,4-thiadiazol-2-ylpropanamide] | 5.72
CC(C)CC(c1ccc(-c2cccc(Cl)c2)cc1)C(C)(C)C(=O)Nc1nncs1 (stereo not shown) [Example 434, 3-(3′-chloro-4-biphenylyl)-2,2,5-trimethyl-N-1,3,4-thiadiazol-2-ylhexanamide] | 19.4
CC(C)(C(=O)Nc1nncs1)C(c1ccccc1)c1ccc(-c2ccc(O)cc2)cc1 (stereo not shown) [Example 412, 3-(4′-hydroxy-4-biphenylyl)-2,2-dimethyl-3-phenyl-N-1,3,4-thiadiazol-2-ylpropanamide] | 16.5
CCCCOc1ccc(-c2ccc(C(c3ccccc3)C(C)(C)C(=O)Nc3nncs3)cc2)cc1 (stereo not shown) [Example 416, 3-(4′-butoxy-4-biphenylyl)-2,2-dimethyl-3-phenyl-N-1,3,4-thiadiazol-2-ylpropanamide] | 42.5
CC(C)Cc1ccc(-c2ccc(C(CC(C)C)C(C)(C)C(=O)Nc3nncs3)cc2)cc1 (stereo not shown) [Example 397, 2,2,5-trimethyl-3-(4′-(2-methylpropyl)-4-biphenylyl)-N-1,3,4-thiadiazol-2-ylhexanamide] | 12.1
CC(C)(C(=O)Nc1nncs1)C(c1ccccc1)c1ccc(Br)cc1 (stereo not shown) [Example 323, 3-(4-bromophenyl)-2,2-dimethyl-3-phenyl-N-1,3,4-thiadiazol-2-ylpropanamide] | 5.07
CCOc1ccc(-c2ccc(C(CC(C)C)C(C)(C)C(=O)Nc3nncs3)cc2)cc1 (stereo not shown) [Example 430, 3-(4′-ethoxy-4-biphenylyl)-2,2,5-trimethyl-N-1,3,4-thiadiazol-2-ylhexanamide] | 4.87
CC(C)CC(c1ccc(N2CCOCC2)cc1)C(C)(C)C(=O)Nc1nncs1 (stereo not shown) [Example 390, 2,2,5-trimethyl-3-(4-(4-morpholinyl)phenyl)-N-1,3,4-thiadiazol-2-ylhexanamide] | 5.41
